In series [1] the test system is S. epidermidis strain ATCC 12228 and S. aureus ATCC. The series is classed as cell-based, Staphylococcus. As to the method: Time-kill curves were obtained to study the kinetics of bactericidal activity. Compounds C30, Hit50 and C29 (for sequences see above) were tested against S. epidermidis strain ATCC 12228 and S. aureus ATCC at the compound's MIC and two times MIC value. It was shown that compound C30 decreased the viable counts by 100% within 5 min, while Hit50 reduced the viable counts by ^˜3 log units after the same incubation period, both at a concentration that equaled its MIC value (see FIG. 11A and FIG. 11B). […] For example the time needed to decrease the number of CFU/ml one-fold for C29 was 60 minutes (at the minimum inhibitory concentration), and only 10 minutes for 2×MIC.

The test system of series [2] is negative regulator of genetic competence CIpC/mecB. The experiment in a line: SOSPA shotgun proteomic analysis of soluble / insoluble fractions. It is filed as cell-based, S.aureus and B.cereus. Conditions: C30 treated vs untreated cells. An excerpt: The aggregation technology is based on the assumption that short amino acid stretches, with a high propensity of aggregation (e.g. assessed by the TANGO score) and that are derived from a target protein, can induce aggregation of that protein. This hypothesis has been confirmed by a shotgun proteomic analysis of the insoluble fraction. If we assume that our aggregator peptides work through specific interaction with its target and causes its aggregation, it is expected that the target enters the insoluble fraction. For this reason we've decided to split the lysate into 2 fractions: insoluble and soluble and compare these with untreated cell fractions. Proteins present in both treated (TC30) and untreated (NT) insoluble fractions were assumed to present a background of non-specific naturally non-soluble proteins. Additionally we've examined soluble fractions of both treated and untreated bacteria and as expected the protein of interest was present only in the untreated fraction. This means that the following criteria for target search were used:
1) potential aggregation targets are proteins obtained from the list of proteins in the Insoluble fraction of C30 treated cells minus proteins in the Insoluble fraction of non-treated cells […]

Series [3] in a line: Preliminary in vivo toxicity in mice. Particulars: Swiss mice. How it is done:
Further, three groups of 6-weeks old female Swiss mice were injected with increasing C30 doses over a period of 1 week. C30 was dissolved in physiological water and 1 injection per day was given. In the first 3 days injections in the tail vein were given (150 μl per injection) and during the remaining 2 days IP injections (300 μl per injection). The primary dose started from 3 mg/kg and each day the dose was increased gradually. The control group received the same volume of saline. The highest dose analyzed for IV injections was 50 mg/kg and for the IP injections 100 mg/kg. […] Organs of treated and control mice were subjected to further histological analysis. After all 5 injections were given, blood was taken by retro-orbital puncture and analyzed.

For a further series, the system named is B. cereus. Conditions: planktonic, 18 hours.
Another series relates to E. coli. Particulars: E. coli ATCC25922; planktonic bacteria; read-out after 18 hours of growth.
Another series deals with E. faecalis. Conditions: E. faecalis ATCC 19433; planktonic; 18 hours.
The test system of a further series is Nocardia asteroides. Conditions: Nocardia asteroides ATCC 3308; planktonic; 18 hours.
For the next series, the system named is S. haemolyticus. The experiment in a line: MIC, microbroth dilution. Particulars: planktonic, 18 hours.
The test system of series [4] is Listeria monocytogenes ATCC 11994. The experiment in a line: MIC, microbroth dilution. Conditions: planktonic, 18 hours.
Procedure: (§1) Bacteria were grown in a shaking incubator at 37° C. and 160rpm in 50 ml BHI , using individual colonies retrieved from a fresh overnight TSA-sheep blood plate. The cultures were grown to a density of approximately 1×10^8cells/ml and then diluted to 5×10^5 cells/ml in CAMHB (Mc Farland 0.5). Each well contained 100p.I (50p.I of peptide containing MHB plus 50 μl inoculum). The final cell density was 1×10^5 to 5×10^5/ml. After addition of the cell suspension, plates were incubated at 37° C. for 18 to 24 hours. The optical density at 590 nm (OD590) of each well was measured after 5 seconds of shaking the plate using Perkin Elmer spectrophotometer (1420 Multilabel Counter Vicotr 3). […] Each well, where no growth was observed, was also plated on TSA-sheep blood agar plates, incubated at 37° C. overnight and visually inspected.
The test system of the next series is Bacillus subtilis. As to the kind of experiment: MIC, microbroth dilution. Conditions: planktonic, 18 hours.
The next series has as its system S. aureus MRSA 326. The experiment in a line: Neutropenic-mouse thigh model. Conditions: neutropenic mice; bolus i.v. dose of 15 mg/kg 2 h after inoculation; sacrificed 4 hours post-infection.
Another series deals with Candida albicans SC5314. The experiment in a line: Invasion of C. albicans SC5314 into epithelial cell line TR-146. The series is classed as cell-based. Particulars: invasion 3 h. As to the method:
As discussed herein before, C. albicans Als3 also plays a role in adherence and invasion to epithelial and endothelial cells. […] Here we investigated the effect of external application of interferor peptide F9 on C. albicans SC5314 adherence and invasion to epithelial cells. Thereto, Candida cells were incubated together with the human cells (epithelial cell line TR-146) in the presence of peptide F9 during adhesion (1 h) or invasion (3 h). The amount of adhered and internalized cells was determined by counting using epifluorescence.
The monolayers of TR-146 cell lines were infected with Candida cells as previously described in 6.2.15. After 3 h incubation period of monolayers with Candida cells at 37° C., 5% CO2, the medium above the epithelial cells was aspirated and the monolayers were rinsed three times with 1× PBS to remove fungal cells which were not associated with epithelial cells. Next, the epithelial cells were fixed with 4% Histofix (Roth) for 20 min at 37° C. All fungal cells remaining adherent to the surface were stained for 1 h with a rabbit anti-C. albicans polyclonal antibody (Acris Antibodies, Germany) (dilution 1:2000) and counterstained with a secondary anti-rabbit IgG conjugated with Alexa Fluor 488 (Invitrogen) (dilution 1:5000). After extensive rinsing with 1× PBS, the cells were permeabilized in 0.5% Triton X-100 in water for 5 min. Further, adherent and invading parts of fungal cells within epithelial cells were stained with calcofluor white (dilution 1:100) for 15 min and washed three times with water, for 10 min at 30° C., 180 rpm. Coverslips were mounted inverted onto glass slides and the stained cells were visualized with epifluorescence using a filter set to detect calcofluor white (filter for DAPI) and Alexa Fluor 488 (Leica DFC350 FX, Mannheim, Germany). The percentage of invading C. albicans cells was determined by dividing the number of internalized cells by the total number of adherent cells. At least 100 fungal cells were counted on each coverslip.

Like-named read-outs stand apart in the source and are kept apart here. No end group written: not given here.

Procedure for B. cereus: as §1
(§2) A microbroth dilution method was used with twofold serial dilutions in CAMHB (according to EMEA guidelines) was used for screening of peptide activity, with concentrations ranging from 0.3 μg/mIto 200 μg/ml.
Procedure for Bacillus subtilis: as §1
Procedure for Corynebacterium: as §1, §2
Procedure for E. coli: as §1, §2
Procedure for E. faecalis: as §1, §2
Procedure for Nocardia asteroides: as §1, §2
Procedure for S. haemolyticus: as §1

For the sequence RILLGLIRRGSRILLGLIRR [C30], in series [1], the “time needed to kill Staphylococci” value lay in the range of 5 to 10 min. In addition, the “decrease of viable counts” value in series [1] (Staphylococcus epidermidis and Staphylococcus aureus, 5 min, 1 ×MIC) is given as 100%. Also, the “distribution of the target protein between soluble and insoluble fraction” value in series [2] is recorded as “shifted from soluble into insoluble fraction upon peptide treatment”. Besides, the side effects result in series [3] (IP injection, highest dose of 100 mg/kg) was “developed a subcutaneous lesion bump”. The “mortality and side effects” value in series [3] (IV injections, increasing doses from 3 mg/kg, highest dose 50 mg/kg) is on record as “no signs of mortality nor any other visible side effects”. The blood analysis entry in series [3] (after all 5 injections, retro-orbital puncture) is “No abnormalities were found in the blood”. Besides, the MIC result with B. cereus (Bacillus cereus 1) is reported as “Bacillus cereus 1: 6 μg/ml”; in the series with B. cereus (Bacillus cereus 2) it was “Bacillus cereus 2: 6 μg/ml”; in the series on E. coli it was “E. coli ATCC25922: 100 μg/ml”; in the series with E. faecalis, “E. faecalis ATCC 19433: 6 μg/ml”; against Nocardia asteroides, “Nocardia asteroides ATCC 3308: 1.5 μg/ml”; against S. haemolyticus, “S. haemolyticus: 1.5 μg/ml”. Further, the MIC result is “Listeria monocytogenes ATCC 11994: 1.5 μg/ml” in series [4], “Bacillus subtilis ATCC 6051: 1.5 μg/ml” in the series on Bacillus subtilis (Bacillus subtilis ATCC 6051) and “Bacillus subtilis IP 5832: 6 μg/ml” with Bacillus subtilis (Bacillus subtilis IP 5832). Further, the “activity against the genus Corynebacterium” value with Corynebacterium was “active against the genus Corynebacterium”. Further, the “reduction of expansion of initial inoculum” value in the series on S. aureus MRSA 326 came to 6.9 Log10 CFU/ml.

As to RKLLFNLGSRNGIVIVATTR [F9], in the series on Candida albicans SC5314 (2.5 μM), the “effect on invasion of epithelial cells” value is listed as “did not have any effect on invasion”. In addition, the “decrease of invasion of epithelial cells” value in the series on Candida albicans SC5314 (10 μM) stood at 15%; with Candida albicans SC5314 (50 μM) it was 34%.

The record behind these values is patent publication US20220033448A1, “METHODS FOR AGGREGATION OF PROTEINS” (priority 2011, published 2022).
